Assays:
endogenous MLKL in U937 = endogenous MLKL in U937 (Homo sapiens (Human), UniProt Q8NB16); assay: Degradation assay: endogenous MLKL in U937 (western blot); conditions: U937, 24 h incubation, read-out: Degradation of endogenous MLKL in U937 (DC50 cell-based assay)
Protocol: Degradation Assay: Screening Compounds Procedure to Evaluate the Activity of Compounds in Degrading Endogenous MLKL in Human and Mouse Cell
The mouse dermal fibroblast (MDF) cell line was seeded the day before the experiment in a 24-well plate at a cell density of […] per well in a volume of 0.5 mL per well and left to attach overnight. The human monocyte cell line (U937) was seeded on the day of the experiment in a 24-well plate at a cell density of […] per well in a volume of 0.5 mL per well.
The compound was diluted in DMSO with a starting concentration of 10 mM and titrated stepwise with a dilution of 1:5. 0.5 μL of the compound dilution was added to the appropriate well to achieve a final concentration of 10; 2; 0.4; 0.08 and 0.016 μM. A DMSO only well was included as control.
The cells were incubated for 24 h in the presence of the compound at 37° C. and 10% CO2.
After the 24 h incubation period, the medium was removed and cells washed with 0.5 mL PBS. The cells were then lysed directly in 60 μL of 1×SDS gel loading buffer.
The cell lysate was heat-denatured at […] for 10 min. 10 μL of lysate per well were run on 18-well 4-15% Criterion TGX stain free gels (BIO-RAD). The proteins were then transferred onto nitrocellulose membrane with a wet transfer protocol in the Criterion Blotter (BIO-RAD).
Membranes were blocked with 5% skim milk in TBST. Primary antibody against MLKL (clone 3H1, MABC604 Merck) was used at 1:2000 dilution in TBST with 1% BSA and left shaking over night at 4° C. After washes with TBST, the membranes were incubated with goat anti-rat IgG HRP-conjugated antibody (Southern Biotech) in 1% skim milk TBST at 1:10000 dilution for 1 h at room temperature. After TBST washes the bands were imaged on the ChemiDoc MP Imaging System (BIO-RAD) with Immobilion Western Chemiluminescent HRP Substrate Forte (Millipore). The loading control GAPDH was probed for with rabbit anti-GAPDH (CST 14C10) at 1:2000 dilution in 1% BSA TBST over night at 4° C. TBST washes were followed by incubation with goat anti-rabbit IgG HRP-conjugated antibody (Southern Biotech) in 1% skim milk TBST at 1:10000 dilution for 1 h at room temperature followed by TBST washes. The signal was detected as described above.
The band intensity was measured in the ImageLab Software (BIO-RAD) and the MLKL values adjusted for loading with GAPDH. The percentage of degradation was calculated by normalizing the compound treated values to the DMSO only control.

human MLKL (full length) = human MLKL (full length) (Homo sapiens (Human), UniProt Q8NB16); assay: KINOMEscan binding assay, human MLKL (full length); conditions: hMLKL, Table 25; read-out: MLKL (KD)
Method in brief: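 Competition binding format with qPCR detection. Kinases, either phage-fused from E. coli lysates or HEK-293-derived with a DNA tag, bound ligand-coated beads in the presence of compound (11 points, 3-fold steps, 1% DMSO, top usually 30,000 nM). Kd from nonlinear Hill fitting with slope −1.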

endogenous MLKL in MDF = endogenous MLKL in MDF (Mus musculus (Mouse), UniProt Q9D2Y4); assay: Degradation assay: endogenous MLKL in MDF (western blot); conditions: MDF cells, 24 h incubation with compound, MLKL adjusted for loading with GAPDH, normalized to DMSO only control, read-out: Degradation of endogenous MLKL in MDF (DC50 cell-based assay)
Method in brief: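 MDF (seeded the day before) or U937 cells were treated 24 h at 37 °C, 10% CO2 with compound at 10, 2, 0.4, 0.08 and 0.016 μM final. Endogenous MLKL was quantified by western blot (anti-MLKL 3H1), normalized to GAPDH. Percent degradation was taken relative to DMSO control.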

[1] = tested on: Immortalised Mouse Dermal Fibroblasts (MDFs); assay: Cellular assay: inhibition of TSI induced necroptosis, CellTitre-Glo viability; conditions: Mus musculus, Fibroblast; MDF, 3 hours TSI cocktail, Table 27; read-out: Inhibition of TSI-induced necroptosis (IC50 cell-based assay) in MDF
Method in brief: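 Immortalised mouse dermal fibroblasts (2200 cells/well) pretreated 30 min with compound, 10-point 1:3 series from 36 μM, 0.3% DMSO. Then 3 h at 37° C. with TNF (100 ng/ml), Smac mimetic (500 nM) and IDN-6556 (10 μM). CellTiter-Glo luminescence normalised to DMSO (100%) and DMSO+TSI (0%); IC50 from 4-parameter logistic fit.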

Sequence of human MLKL (full length) (Q8NB16 whole entry, the tested form may be a part): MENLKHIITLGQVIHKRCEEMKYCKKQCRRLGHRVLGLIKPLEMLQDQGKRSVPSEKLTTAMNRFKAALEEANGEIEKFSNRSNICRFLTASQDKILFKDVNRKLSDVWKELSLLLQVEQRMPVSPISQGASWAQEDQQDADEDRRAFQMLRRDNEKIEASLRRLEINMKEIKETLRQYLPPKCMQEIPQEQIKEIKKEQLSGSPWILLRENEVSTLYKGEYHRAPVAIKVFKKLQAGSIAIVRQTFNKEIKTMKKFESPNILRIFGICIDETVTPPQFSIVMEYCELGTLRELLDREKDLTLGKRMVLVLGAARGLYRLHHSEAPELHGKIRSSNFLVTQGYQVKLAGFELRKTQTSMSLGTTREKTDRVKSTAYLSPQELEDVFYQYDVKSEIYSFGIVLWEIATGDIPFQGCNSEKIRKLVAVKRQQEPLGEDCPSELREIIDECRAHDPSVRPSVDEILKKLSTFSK
Sequence of endogenous MLKL in U937 (Q8NB16 whole entry): as the sequence (Q8NB16 whole entry, the tested form may be a part) above
Sequence of endogenous MLKL in MDF (Q9D2Y4 whole entry): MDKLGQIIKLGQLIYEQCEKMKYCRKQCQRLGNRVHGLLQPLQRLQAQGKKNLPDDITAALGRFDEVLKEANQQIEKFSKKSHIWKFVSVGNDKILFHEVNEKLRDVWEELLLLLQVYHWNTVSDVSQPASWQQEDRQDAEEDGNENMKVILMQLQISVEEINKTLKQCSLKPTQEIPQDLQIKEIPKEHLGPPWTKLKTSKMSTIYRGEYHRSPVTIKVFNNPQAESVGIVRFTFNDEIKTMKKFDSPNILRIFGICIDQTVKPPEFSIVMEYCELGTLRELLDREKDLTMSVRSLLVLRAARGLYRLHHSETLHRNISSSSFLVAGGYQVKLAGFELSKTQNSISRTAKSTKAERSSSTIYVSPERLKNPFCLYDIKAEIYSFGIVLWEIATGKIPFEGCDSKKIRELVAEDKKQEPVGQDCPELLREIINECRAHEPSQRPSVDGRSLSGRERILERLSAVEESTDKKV

In the case of `Cc1ncsc1-c1ccc(CNC(=O)[C@@H]2C[C@@H](O)CN2C(=O)[C@@H](NC(=O)CCOCCCn2cc(-c3cnc(N)c4c(-c5ccc(NS(=O)(=O)C(F)F)c(O[C@@H](C)c6ccc(F)cc6)c5)nn(C)c34)cn2)C(C)(C)C)cc1` [Compound 1040, (2S,4R)-1-[(2S)-2-{3-[3-(4-{4-amino-3-[4-(difluoromethanesulfonamido)-3-[(1S)-1-(4-fluorophenyl)ethoxy]phenyl]-1-methyl-1H-pyrazolo[4,3-c]pyridin-7-yl}-1H-pyrazol-1-yl)propoxy]propanamido}-3,3-dimethylbutanoyl]-4-hydroxy-N-{[4-(4-methyl-1,3-thiazol-5-yl)phenyl]methyl}pyrrolidine-2-carboxamide], the DC50 (endogenous MLKL in U937) is reported as 1000 to 10000 nM and the Kd (human MLKL (full length)) is reported as under 10 nM.
For `Cc1ncsc1-c1ccc(CNC(=O)[C@@H]2C[C@@H](O)CN2C(=O)[C@@H](NC(=O)C2(F)CC2)C(C)(C)C)c(OCCCCCCCCCn2cc(-c3cnc(N)c4c(-c5ccc(NS(=O)(=O)C(F)F)c(O[C@@H](C)c6ccc(F)cc6)c5)nn(C)c34)cn2)c1` [Compound 1041, (2S,4R)-N-[(2-{[9-(4-{4-amino-3-[4-(difluoromethanesulfonamido)-3-[(1S)-1-(4-fluorophenyl)ethoxy]phenyl]-1-methyl-1H-pyrazolo[4,3-c]pyridin-7-yl}-1H-pyrazol-1-yl)nonyl]oxy}-4-(4-methyl-1,3-thiazol-5-yl)phenyl)methyl]-1-[(2S)-2-[(1-fluorocyclopropyl)formamido]-3,3-dimethylbutanoyl]-4-hydroxypyrrolidine-2-carboxamide], the DC50 (endogenous MLKL in MDF) was under 1000 nM, the DC50 (endogenous MLKL in U937) was 1000 to 10000 nM and the Kd (human MLKL (full length)) was 10 to 1000 nM.
`Cc1ncsc1-c1ccc(CNC(=O)[C@@H]2C[C@@H](O)CN2C(=O)[C@@H](NC(=O)CCCCCOc2ccc(-c3cnc(N)c4c(-c5ccc(NS(=O)(=O)C(F)F)c(O[C@@H](C)c6ccc(F)cc6)c5)nn(C)c34)cn2)C(C)(C)C)cc1` [Compound 1050, (2S,4R)-1-[(2S)-2-{6-[(5-{4-amino-3-[4-(difluoromethanesulfonamido)-3-[(1S)-1-(4-fluorophenyl)ethoxy]phenyl]-1-methyl-1H-pyrazolo[4,3-c]pyridin-7-yl}pyridin-2-yl)oxy]hexanamido}-3,3-dimethylbutanoyl]-4-hydroxy-N-{[4-(4-methyl-1,3-thiazol-5-yl)phenyl]methyl}pyrrolidine-2-carboxamide] was tested, and the DC50 (endogenous MLKL in MDF) was 1000 to 10000 nM, the DC50 (endogenous MLKL in U937) was under 1000 nM and the Kd (human MLKL (full length)) was 10 to 1000 nM.
`Cc1ncsc1-c1ccc(CNC(=O)[C@@H]2C[C@@H](O)CN2C(=O)[C@@H](NC(=O)CCCCCCC#Cc2cnc(N)c3c(-c4ccc(NS(=O)(=O)C(F)F)c(F)c4)nn(C)c23)C(C)(C)C)cc1` [Compound 1052, (2S,4R)-1-[(2S)-2-(9-{4-amino-3-[4-(difluoromethanesulfonamido)-3-fluorophenyl]-1-methyl-1H-pyrazolo[4,3-c]pyridin-7-yl}non-8-ynamido)-3,3-dimethylbutanoyl]-4-hydroxy-N-{[4-(4-methyl-1,3-thiazol-5-yl)phenyl]methyl}pyrrolidine-2-carboxamide] was tested, and the DC50 (endogenous MLKL in U937) was 1000 to 10000 nM and the Kd (human MLKL (full length)) was 10 to 1000 nM.
With `Cc1ncsc1-c1ccc(CNC(=O)[C@@H]2C[C@@H](O)CN2C(=O)[C@@H](NC(=O)COCCOCC#Cc2cnc(N)c3c(-c4ccc(NS(=O)(=O)C(F)F)c(O[C@@H](C)c5ccc(F)cc5)c4)nn(C)c23)C(C)(C)C)cc1` [Compound 1075, (2S,4R)-1-[(2S)-2-(2-{2-[(3-{4-amino-3-[4-(difluoromethanesulfonamido)-3-[(1S)-1-(4-fluorophenyl)ethoxy]phenyl]-1-methyl-1H-pyrazolo[4,3-c]pyridin-7-yl}prop-2-yn-1-yl)oxy]ethoxy}acetamido)-3,3-dimethylbutanoyl]-4-hydroxy-N-{[4-(4-methyl-1,3-thiazol-5-yl)phenyl]methyl}pyrrolidine-2-carboxamide] the DC50 (endogenous MLKL in U937) was under 1000 nM and the Kd (human MLKL (full length)) was under 10 nM.
`C[C@H](Oc1cc(-c2nn(C)c3c(-c4cnn(C5CCN(C(=O)C6CCCN(c7cccc8c7C(=O)N(C7CCC(=O)NC7=O)C8=O)C6)CC5)c4)cnc(N)c23)ccc1NS(=O)(=O)C(F)F)c1ccc(F)cc1` (stereo partly drawn) [Compound 1077, N-(4-{4-amino-7-[1-(1-{1-[2-(2,6-dioxopiperidin-3-yl)-1,3-dioxo-2,3-dihydro-1H-isoindol-4-yl]piperidine-3-carbonyl}piperidin-4-yl)-1H-pyrazol-4-yl]-1-methyl-1H-pyrazolo[4,3-c]pyridin-3-yl}-2-[(1S)-1-(4-fluorophenyl)ethoxy]phenyl)-1,1-difluoromethane-sulfonamide] showed a DC50 (endogenous MLKL in U937) of 1000 to 10000 nM and an IC50 [1] of 1000 to 10000 nM.
With `C[C@H](Oc1cc(-c2nn(C)c3c(C#CCCCCCCNC(=O)COc4cccc5c4C(=O)N(C4CCC(=O)NC4=O)C5=O)cnc(N)c23)ccc1NS(=O)(=O)C(F)F)c1ccc(F)cc1` (stereo partly drawn) [Compound 1097, N-(8-{4-amino-3-[4-(difluoromethanesulfonamido)-3-[(1S)-1-(4-fluorophenyl)ethoxy]phenyl]-1-methyl-1H-pyrazolo[4,3-c]pyridin-7-yl}oct-7-yn-1-yl)-2-{[2-(2,6-dioxopiperidin-3-yl)-1,3-dioxo-2,3-dihydro-1H-isoindol-4-yl]oxy}acetamide] the DC50 (endogenous MLKL in U937) was under 1000 nM and the Kd (human MLKL (full length)) was under 10 nM.
Compound `CN[C@@H](C)C(=O)N[C@H](C(=O)N1C[C@H](NC(=O)CCCCCCn2cc(-c3cnc(N)c4c(-c5ccc(NS(=O)(=O)C(F)F)c(O[C@@H](C)c6ccc(F)cc6)c5)nn(C)c34)cn2)C[C@H]1C(=O)Nc1c(F)cccc1F)C(C)(C)C` [Compound 1101, (2S)-4-[7-(4-{4-amino-3-[4-(difluoromethanesulfonamido)-3-[(1S)-1-(4-fluorophenyl)ethoxy]phenyl]-1-methyl-1H-pyrazolo[4,3-c]pyridin-7-yl}-1H-pyrazol-1-yl)heptanamido]-N-(2,6-difluorophenyl)-1-[(2S)-3,3-dimethyl-2-[(2S)-2-(methylamino)propanamido]butanoyl]pyrrolidine-2-carboxamide] has a DC50 (endogenous MLKL in U937) of under 1000 nM and a Kd (human MLKL (full length)) of under 10 nM.
`C[C@H](Oc1cc(-c2nn(C)c3c(-c4cnn(C5CCC(C(=O)N6CC(Nc7cccc8c7C(=O)N(C7CCC(=O)NC7=O)C8=O)C6)CC5)c4)cnc(N)c23)ccc1NS(=O)(=O)C(F)F)c1ccc(F)cc1` (stereo partly drawn) [Compound 1133, N-[4-(4-amino-7-{1-[4-(3-{[2-(2,6-dioxopiperidin-3-yl)-1,3-dioxo-2,3-dihydro-1H-isoindol-4-yl]amino}azetidine-1-carbonyl)cyclohexyl]-1H-pyrazol-4-yl}-1-methyl-1H-pyrazolo[4,3-c]pyridin-3-yl}-2-[(1S)-1-(4-fluorophenyl)ethoxy]phenyl]-1,1-difluoromethanesulfonamide] gave a DC50 (endogenous MLKL in MDF) of under 1000 nM, a Kd (human MLKL (full length)) of 10 to 1000 nM and an IC50 [1] of 1000 to 10000 nM.
Compound “(2S,4R)-1-[(2S)-2-(9-{4-amino-3-[4-(difluoromethanesulfonamido)-3-fluorophenyl]-1-methyl-1H-pyrazolo[4,3-c]pyridin-7-yl}non-8-ynamido)-3,3-dimethylbutanoyl]-4-hydroxy-N-{[4-(4-methyl-1,3-thiazol-5-yl)phenyl]methyl}pyrrolidine-2-carboxamide [Compound 1046]” has a DC50 (endogenous MLKL in U937) of under 1000 nM.

Source: patent US20250115598A1 (Anaxis Pharma Pty Ltd, priority 2021, published 2025)
